{"source": "paper PMC9109461", "about": "“Challenges and opportunities in the development of metal-based anticancer theranostic agents” (Bioscience Reports, 2022)", "origin": "cited, not measured here", "key": {"HeLa cells": {"tested_on": "HeLa cells", "set-up": "method as in PMID 28948792", "settings": "MTT assay"}, "CaSki cells": {"tested_on": "CaSki cells", "set-up": "method as in PMID 30551086"}, "A549R": {"tested_on": "A549R", "set-up": "method as in PMID 30888144", "settings": "A549R cells"}}, "data": [{"substance": "[(cis-Pt(NH3)2Cl2] [cisplatin]", "values": [{"measurement": "IC50", "setting": "HeLa cells", "result": "3 ± 1.2", "unit": "µM"}, {"measurement": "IC50", "setting": "CaSki cells", "result": 4.2, "unit": "µM"}, {"measurement": "IC50", "setting": "A549R", "result": "51.3 ± 1.9", "unit": "µM"}]}]}
